The values below come from patent publication US11110082B2, “Tyrosine kinase inhibitors” (Rigel Pharmaceuticals, Inc., priority 2016, dated 2021).

The assay addresses T1, MerTK (Homo sapiens, UniProt Q12866).
T1 construct: Seed HUVECs (10K cells/well) in EBM-2 complete media; host or cells: HUVEC (primary human umbilical vein endothelial cells)
T1 sequence (Q12866 21-999): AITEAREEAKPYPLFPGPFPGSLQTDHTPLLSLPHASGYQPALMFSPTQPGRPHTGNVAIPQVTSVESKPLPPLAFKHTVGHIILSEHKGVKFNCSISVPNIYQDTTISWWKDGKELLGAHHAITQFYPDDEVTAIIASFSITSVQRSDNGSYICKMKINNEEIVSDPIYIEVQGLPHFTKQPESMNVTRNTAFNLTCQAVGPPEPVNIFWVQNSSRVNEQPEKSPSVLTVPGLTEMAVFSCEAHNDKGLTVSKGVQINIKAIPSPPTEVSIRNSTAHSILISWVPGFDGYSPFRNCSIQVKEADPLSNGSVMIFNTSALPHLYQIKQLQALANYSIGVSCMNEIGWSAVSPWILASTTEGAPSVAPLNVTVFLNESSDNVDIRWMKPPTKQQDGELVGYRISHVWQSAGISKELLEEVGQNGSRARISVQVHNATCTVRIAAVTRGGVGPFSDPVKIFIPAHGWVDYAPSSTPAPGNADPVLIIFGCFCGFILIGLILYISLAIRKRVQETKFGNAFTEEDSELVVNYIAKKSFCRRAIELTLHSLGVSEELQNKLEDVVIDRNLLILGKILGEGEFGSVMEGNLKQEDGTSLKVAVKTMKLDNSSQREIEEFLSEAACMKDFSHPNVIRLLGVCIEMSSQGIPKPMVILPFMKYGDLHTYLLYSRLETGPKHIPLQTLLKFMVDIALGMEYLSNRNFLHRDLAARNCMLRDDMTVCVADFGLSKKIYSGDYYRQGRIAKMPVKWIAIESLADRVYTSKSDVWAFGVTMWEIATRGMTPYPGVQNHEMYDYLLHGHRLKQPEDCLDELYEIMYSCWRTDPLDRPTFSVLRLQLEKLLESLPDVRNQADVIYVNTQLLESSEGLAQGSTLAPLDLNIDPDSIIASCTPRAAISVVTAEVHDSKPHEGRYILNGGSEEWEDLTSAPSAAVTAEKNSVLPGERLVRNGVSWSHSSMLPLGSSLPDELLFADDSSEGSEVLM
The assay is described as follows: PAKT HTRF-HUVEC assay (pAkt Ser473 HTRF after anti-human MerTK-XL stimulation). Type of assay: cell-based. Particulars: HUVEC cells, 1 hour compound, stimulated with anti-human MerTK-XL 1 ug/mL for 10 minutes, read-out: inhibition of MerTK. The protocol:
Example 4: PAKT HTRF-HUVEC Assay Phospho Akt (Ser473) Assay kit-10,000 tests (Cisbio US, 64[…]) HUVEC cells (Lonza, CC-2519) Anti-human MerTK antibody (Clone 125518) (R&D Systems, MAB8912) Method Seed HUVECs (10K cells/well) in EBM-2 complete media (EBM-2 basal medium plus EGM-2 BulletKit supplements) overnight at 37° C., 5% CO2 in Costar 96-well white clear-bottom plates. Remove culture media and starve cells for 3-4 hours in 50 μL/well EBM-2 basal medium. Perform serial dilution of compounds in DMSO from 2.5 mM in 4-fold dilutions, and then dilute 1:125 in EBM-2 basal media. Mix 50 μL/well 2x compounds with 50 μL/well HUVECs in duplicate in Costar 96-well white clear-bottom plates. Incubate plates for 1 hour at 37° C., 5% CO2. Cross-link anti-human MerTK antibody to Biotin-SP-conjugated anti-mouse IgG antibody (1:1) to give final concentrations of 5 ug/mL of anti-human MerTK-XL. Stimulate HUVECs with 25 μL/well 5x anti-human MerTK-XL to give final concentrations of 1 ug/mL for 10 minutes at 37° C., 5% CO2. Completely remove media and lyse HUVECs with 40 uL/WELL per well of Cisbio HTRF 1× lysis buffer. Performed pAkt(Ser473) HTRF assay in ProxiPlate-384 Plus, white 384-shallow well microplate according to the vendor protocol and read plates with a SpectralMax Paradigm plate reader. Enter the HTRF values into Athena (Rigel) for curve fitting, EC50 calculation, and database storage.
Background: In TR-FRET formats the signal depends on donor and acceptor labels being close together.

Take `O=c1c2cc(CN3CC[N@+]4([O-])CC[C@@H]3CC4)ccc2c2cnc(NCC3CC3)nc2n1C1CCC(O)CC1` (relative stereo) [Compound 51, trans-4-((3-((Cyclopropylmethyl)amino)-5-(4-hydroxycyclohexyl)-6-oxo-5,6-dihydropyrimido[4,5-c]isoquinolin-8-yl)methyl)-1,4-diazabicyclo[3.2.2]nonane 1-oxide]: the EC50 was found to be 11.9 µM.

For the molecule `CCC(F)(F)CNc1ncc2c3ccc(CN4CCOCC4)cc3c(=O)n([C@H]3CC[C@H](O)CC3)c2n1` [Compound 1, trans-3-((2,2-Difluorobutyl)amino)-5-(4-hydroxycyclohexyl)-8-(morpholinomethyl)pyrimido [4,5-c]isoquinolin-6(5H)-one], the EC50 worked out at 0.247 µM.

Regarding `CCCCNc1ncc2c3ccc(CN4CCOCC4)cc3c(=O)n([C@H]3CC[C@H](O)CC3)c2n1` [Compound 2, trans-3-(Butylamino)-5-(4-hydroxycyclohexyl)-8-(morpholinomethyl)pyrimido [4,5-c]isoquinolin-6(5H)-one], the EC50 was determined as 0.0442 µM.

Consider `CCCCNc1ncc2c3ccc(CN4CCN(C)CC4)cc3c(=O)n([C@H]3CC[C@H](O)CC3)c2n1` [Compound 3, trans-3-(Butylamino)-5-(4-hydroxycyclohexyl)-8-((4-methylpiperazin-1-yl)methyl)pyrimido[4,5-c]isoquinolin-6(5H)-one], for which the EC50 was 0.0288 µM.

As to `CCCCNc1ncc2c3ccc(CN4CCOCC4)cc3c(=O)n([C@H]3CC[C@@H](O)CC3)c2n1` [Compound 4, cis-3-(Butylamino)-5-(4-hydroxycyclohexyl)-8-(morpholinomethyl)pyrimido [4,5-c]isoquinolin-6(5H)-one], the EC50 worked out at 0.174 µM.

On to `CCCCNc1ncc2c3ccc(CN4CCN(C)CC4)cc3c(=O)n([C@H]3CC[C@@H](O)CC3)c2n1` [Compound 5, cis-3-(Butylamino)-5-(4-hydroxycyclohexyl)-8-((4-methylpiperazin-1-yl)methyl)pyrimido[4,5-c]isoquinolin-6(5H)-one], for which the EC50 was 0.098 µM.

For `CCCCNc1ncc2c3ccc(CN4CCN(C)CC4)cc3c(=O)n(CC3CCC(O)CC3)c2n1` (stereo not shown) [Compound 6, 3-(Butylamino)-5-((4-hydroxycyclohexyl)methyl)-8-((4-methylpiperazin-1-yl)methyl)pyrimido[4,5-c]isoquinolin-6(5H)-one], the EC50 was 2.04 µM.

Consider `CCCCNc1ncc2c3ccc(CN4CCOCC4)cc3c(=O)n(CC3CCC(N)CC3)c2n1` (stereo not shown) [Compound 9, 5-((4-Aminocyclohexyl)methyl)-3-(butylamino)-8-(morpholinomethyl)pyrimido [4,5-c]isoquinolin-6(5H)-one], for which the EC50 turned out to be 0.116 µM.

On to `CCCCNc1ncc2c3ccc(CN4CCN(C)CC4)cc3c(=O)n(CC3CCC(N)CC3)c2n1` (stereo not shown) [Compound 10, 5-((4-Aminocyclohexyl)methyl)-3-(butylamino)-8-((4-methylpiperazin-1-yl)methyl)pyrimido[4,5-c]isoquinolin-6(5H)-one], for which the EC50 turned out to be 0.146 µM.

For the molecule `CN1CCN(Cc2ccc3c(c2)c(=O)n([C@H]2CC[C@H](O)CC2)c2nc(NC4CC(F)(F)C4)ncc32)CC1` [Compound 12, trans-3-((3,3-Difluorocyclobutyl)amino)-5-(4-hydroxycyclohexyl)-8-((4-methylpiperazin-1-yl)methyl)pyrimido[4,5-c]isoquinolin-6(5H)-one], the EC50 is 0.116 µM.

Consider `CN1CCN(Cc2ccc3c(c2)c(=O)n([C@H]2CC[C@H](O)CC2)c2nc(NC4CC(F)C4)ncc32)CC1` (stereo partly drawn) [Compound 13, trans-3-((3-Fluorocyclobutyl)amino)-5-(4-hydroxycyclohexyl)-8-((4-methylpiperazin-1-yl)methyl)pyrimido[4,5-c]isoquinolin-6(5H)-one], for which the EC50 turned out to be 0.144 µM.

Turning to `CCCCNc1ncc2c3ccc(CN4CCN(C)CC4)cc3c(=O)n(C3CC4(CC(O)C4)C3)c2n1` (stereo not shown) [Compound 14, 3-(Butylamino)-5-(6-hydroxyspiro[3.3]heptan-2-yl)-8-((4-methylpiperazin-1-yl)methyl)pyrimido[4,5-c]isoquinolin-6(5H)-one], the EC50 worked out at 0.0564 µM.

For the molecule `CCCCNc1ncc2c3ccc(CN4CCN(C)CC4)cc3c(=O)n(C3CCC(C)(O)CC3)c2n1` (stereo not drawn) [Compound 15, trans-3-(Butylamino)-5-(4-hydroxy-4-methylcyclohexyl)-8-((4-methylpiperazin-1-yl)methyl)pyrimido[4,5-c]isoquinolin-6(5H)-one], the EC50 was 0.0059 µM.

With `CN1CCN(Cc2ccc3c(c2)c(=O)n([C@H]2CC[C@H](O)CC2)c2nc(NCC4CC4)ncc32)CC1` [Compound 16, trans-3-((Cyclopropylmethyl)amino)-5-(4-hydroxycyclohexyl)-8-((4-methylpiperazin-1-yl)methyl)pyrimido[4,5-c]isoquinolin-6(5H)-one], the EC50 came out at 0.0639 µM.

For the molecule `CCCCNc1ncc2c3ccc(CN4CCN(C)CC4)cc3c(=O)n([C@H]3CC[C@@](C)(O)CC3)c2n1` [Compound 17, cis-3-(Butylamino)-5-(4-hydroxy-4-methylcyclohexyl)-8-((4-methylpiperazin-1-yl)methyl)pyrimido[4,5-c]isoquinolin-6(5H)-one], the EC50 came out at 0.068 µM.

Turning to `CCC1(CNc2ncc3c4ccc(CN5CCN(C)CC5)cc4c(=O)n([C@H]4CC[C@H](O)CC4)c3n2)CCC1` [Compound 18, trans-3-(((1-Ethylcyclobutyl)methyl)amino)-5-(4-hydroxycyclohexyl)-8-((4-methylpiperazin-1-yl)methyl)pyrimido[4,5-c]isoquinolin-6(5H)-one], the EC50 was found to be 0.277 µM.

As for `CCC1(CNc2ncc3c4ccc(CN5CCOCC5)cc4c(=O)n([C@H]4CC[C@H](O)CC4)c3n2)CCC1` [Compound 19, trans-3-(((1-Ethylcyclobutyl)methyl)amino)-5-(4-hydroxycyclohexyl)-8-(morpholinomethyl)pyrimido [4,5-c]isoquinolin-6(5H)-one], the EC50 is 0.697 µM.

For `O=c1c2cc(CN3CCOCC3)ccc2c2cnc(NCC3CCC3)nc2n1[C@H]1CC[C@H](O)CC1` [Compound 21, trans-3-((Cyclobutylmethyl)amino)-5-(4-hydroxycyclohexyl)-8-(morpholinomethyl)pyrimido [4,5-c]isoquinolin-6(5H)-one], the EC50 worked out at 0.0307 µM.

With `CCC1(CNc2ncc3c4ccc(CN5CCN(C)CC5)cc4c(=O)n([C@H]4CC[C@H](O)CC4)c3n2)CC1` [Compound 22, trans-3-(((1-Ethylcyclopropyl)methyl)amino)-5-(4-hydroxycyclohexyl)-8-((4-methylpiperazin-1-yl)methyl)pyrimido[4,5-c]isoquinolin-6(5H)-one], the EC50 turned out to be 0.589 µM.

Take `CCC1(CNc2ncc3c4ccc(CN5CCOCC5)cc4c(=O)n([C@H]4CC[C@H](O)CC4)c3n2)CC1` [Compound 23]: the EC50 stood at 1.18 µM.

Turning to `CCC(F)(F)CNc1ncc2c3ccc(CN4CCN(C)CC4)cc3c(=O)n([C@H]3CC[C@H](O)CC3)c2n1` [Compound 24, trans-3-((2,2-Difluorobutyl)amino)-5-(4-hydroxycyclohexyl)-8-((4-methylpiperazin-1-yl)methyl)pyrimido[4,5-c]isoquinolin-6(5H)-one], the EC50 stood at 0.221 µM.

On to `CN1CCN(Cc2ccc3c(c2)c(=O)n([C@H]2CC[C@H](O)CC2)c2nc(NCCCC(F)(F)F)ncc32)CC1` [Compound 25, trans-5-(4-hydroxycyclohexyl)-8-((4-methylpiperazin-1-yl)methyl)-3-((4,4,4-trifluorobutyl)amino)pyrimido [4,5-c]isoquinolin-6(5H)-one], for which the EC50 is 1.68 µM.
